{"source": "patent US20110091473A1", "about": "“NOVEL ANTIBODY THERAPIES” (GENMAB A/S, priority 2007, published 2011)", "assay": "Cholesterol blood level of hypercholesterolemic patients treated with atorvastatin", "format": "in vivo, human", "conditions": "day 3 vs day 0, single dose 80 mg, five patients", "experimental": "Further, the influence of cholesterol depletion in freshly isolated B cells of hypercholesterolemic patients treated with atorvastatin was studied. A small exploratory clinical trial was performed in which hypercholesterolemic patients (n=5) were treated with a single dose of 80 mg atorvastatin (taken in the evening) in order to reduce their cholesterol blood level and determine the effect on CD20 mAb binding on isolated B cells using flow cytometry. Approval of the study was obtained from the ethics review board of the Warsaw University Medical Center. Informed consent was provided according to the Declaration of Helsinki. […]\nThe cholesterol blood level was measured using automated dry chemistry system (Vitroz 250 System Chemistry (Ortho-Clinical Diagnostics, Johnson&Johnson, Piscataway, N.J.). A starting cholesterol blood level of […] was required for patients to enroll in the clinical trial. At time of recruitment, patient I.D.#4 presented with a cholesterol blood concentration […], and as such was considered hypercholesterolemic. At time of recruitment the blood cholesterol level of patient I.D.#5 turned out to be below this cut off value, and thus it can be argued whether this patient should be considered hypercholesterolemic. […] Cholesterol blood levels were subsequently measured on day 0 (pretreatment) and day 3 after treatment. […]", "data": [{"smiles": "CC(C)c1c(C(=O)Nc2ccccc2)c(-c2ccccc2)c(-c2ccc(F)cc2)n1CC[C@@H](O)C[C@@H](O)CC(=O)O", "note": "[atorvastatin]", "values": [{"measurement": "reduction of average cholesterol blood concentration", "value": 17, "unit": "%"}]}]}
